Source: ChEMBL document CHEMBL1152396, “Cardenolides from Pergularia tomentosa display cytotoxic activity resulting from their potent inhibition of Na+/K+-ATPase” (J Nat Prod, 2009)
The source made the active and inactive calls. The calls are words filed in the database; no cut-off is given here.

Key:
A549 [1] = assay: Induction of human A549 cell death assessed as morphological changes at 800 nM after 3 days by video microscopy; assay type: functional, cell-based
BXPC-3 = assay: Antiproliferative activity against human BxPC3 cells after 72 hrs by MTT assay; assay type: functional, cell-based; details: BXPC-3, 72 h
[2] = Inhibition of pig cerebral cortex Na+/K+-ATPase by colorimetric microplate-based assay; assay type: tissue-based, Sus scrofa
PC-3 = assay: Antiproliferative activity against human PC3 cells after 72 hrs by MTT assay; assay type: functional, cell-based; details: PC-3, 72 h
A549 [3] = assay: Induction of human A549 cell growth delay assessed as morphological changes at 800 nM after 3 days by video microscopy; assay type: functional, cell-based
A549 [4] = assay: Antiproliferative activity against human A549 cells after 72 hrs by MTT assay; assay type: functional, cell-based; details: A549, 72 h
MCF7 = assay: Antiproliferative activity against human MCF7 cells after 72 hrs by MTT assay; assay type: functional, cell-based; details: MCF7, 72 h
U-373MG ATCC [5] = assay: Induction of human U373 cell death assessed as morphological changes at 3.4 uM after 3 days by video microscopy; assay type: functional, cell-based
U-373MG ATCC [6] = assay: Induction of human U373 cell growth delay assessed as morphological changes at 3.4 uM after 3 days by video microscopy; assay type: functional, cell-based
LoVo = assay: Antiproliferative activity against human LoVo cells after 72 hrs by MTT assay; assay type: functional, cell-based
[7] = Antiproliferative activity against human U373 cells after 72 hrs by MTT assay; assay type: functional, cell-based, U-373MG ATCC; details: U373 MG
Sus scrofa = species: Sus scrofa; assay: Inhibition of pig cerebral cortex Na+/K+ ATPase at 1 mM by colorimetric microplate-based assay; assay type: tissue-based
A549 [8] = assay: Induction of human A549 cell death assessed as morphological changes at 200 nM after 3 days by video microscopy; assay type: functional, cell-based
U-373MG ATCC [9] = assay: Induction of human U373 cell growth delay assessed as morphological changes at 400 nM after 3 days by video microscopy; assay type: functional, cell-based
A549 [10] = assay: Induction of human A549 cell growth delay assessed as morphological changes at 200 nM after 3 days by video microscopy; assay type: functional, cell-based
U-373MG ATCC [11] = assay: Induction of human U373 cell death assessed as morphological changes at 400 nM after 3 days by video microscopy; assay type: functional, cell-based
A549 [12] = assay: Induction of human A549 cell growth delay assessed as morphological changes at 80 nM after 3 days by video microscopy; assay type: functional, cell-based
A549 [13] = assay: Induction of human A549 cell death assessed as morphological changes at 80 nM after 3 days by video microscopy; assay type: functional, cell-based

Structure (SMILES)	Activity (A549 [1])	IC50 (BXPC-3) [nM]	IC50 [2] [nM]	IC50 (PC-3) [nM]	Activity (A549 [3])	IC50 (A549 [4]) [nM]	IC50 (MCF7) [nM]	Activity (U-373MG ATCC [5])	Activity (U-373MG ATCC [6])	IC50 (LoVo) [nM]	IC50 [7] [nM]	inhibition (Sus scrofa) [%]	Activity (A549 [8])	Activity (U-373MG ATCC [9])	Activity (A549 [10])	Activity (U-373MG ATCC [11])	Activity (A549 [12])	Activity (A549 [13])
CC(=O)O[C@@H]1C[C@]2(O)[C@@H]3CC[C@H]4C[C@H]5O[C@@H]6O[C@H](CO)C[C@@H](O)[C@]6(O)O[C@@H]5C[C@]4(C=O)[C@H]3CC[C@]2(C)[C@H]1C1=CC(=O)OC1	Active	4400	1200	1200	Active	800	4100	Active	Active	6400	3400							
C[C@@H]1O[C@@H](O[C@H]2C[C@@H](O)[C@]3(CO)[C@H]4[C@H](O)C[C@]5(C)[C@@H](C6=CC(=O)OC6)CC[C@]5(O)[C@@H]4CC[C@]3(O)C2)[C@H](O)[C@H](O)[C@H]1O												100						
C[C@]12CC[C@H]3[C@@H](CC[C@H]4C[C@H]5O[C@@H]6O[C@H](CO)C[C@@H](O)[C@]6(O)O[C@@H]5C[C@@]43CO)[C@@]1(O)CC[C@@H]2C1=CC(=O)OC1		300	400	40		40	400			200	100							
C[C@@H]1C[C@@H](O[C@H]2O[C@H](CO)[C@@H](O)[C@H](O)[C@H]2O)[C@]2(O)O[C@@H]3C[C@@]4(C=O)[C@@H](CC[C@@H]5[C@@H]4CC[C@]4(C)[C@@H](C6=CC(=O)OC6)CC[C@]54O)C[C@H]3O[C@@H]2O1		500	500	200		200	300			400	400		Active	Active	Active	Active		
C[C@@H]1C[C@@H](O)[C@]2(O)O[C@@H]3C[C@@]4(C=O)[C@@H](CC[C@@H]5[C@@H]4CC[C@]4(C)[C@@H](C6=CC(=O)OC6)CC[C@]54O)C[C@H]3O[C@@H]2O1 [CALACTIN]		80	400	20		20	40			50	200							
C[C@@H]1CC2(NC(=O)CS2)[C@]2(O)O[C@@H]3C[C@@]4(CO)[C@@H](CC[C@@H]5[C@@H]4CC[C@]4(C)[C@@H](C6=CC(=O)OC6)CC[C@]54O)C[C@H]3O[C@@H]2O1 (stereo not given in full)						8												
C[C@@H]1C[C@@H](O)[C@]2(O)O[C@@H]3C[C@@]4(C=O)[C@@H](CC[C@@H]5[C@@H]4CC[C@]4(C)[C@@H](C6=CC(=O)OC6)[C@H](O)C[C@]54O)C[C@H]3O[C@@H]2O1		2300	1700	1000		400	3800			4400	2600							
C[C@]12[C@H](O)C[C@H]3[C@@H](CC[C@H]4C[C@H]5O[C@@H]6O[C@H](CO)C[C@@H](O)[C@]6(O)O[C@@H]5C[C@@]43CO)[C@@]1(O)CC[C@@H]2C1=CC(=O)OC1 [GHALAKINOSIDE]		300	300	80		80	300			300	400			Active		Active	Active	Active
C[C@]12CC[C@H]3[C@@H](CC[C@H]4C[C@H]5O[C@@H]6O[C@H](CO)C[C@@H](O)[C@]6(O)O[C@@H]5C[C@@]43C=O)[C@@]1(O)CC[C@@H]2C1=CC(=O)OC1		600	500	300		80	500			900	400							
C[C@@H]1C[C@@H](O)[C@]2(O)O[C@@H]3C[C@@]4(CO)[C@@H](CC[C@@H]5[C@@H]4C[C@@H](O)[C@]4(C)[C@@H](C6=CC(=O)OC6)CC[C@]54O)C[C@H]3O[C@@H]2O1		300	700	50		50	300			300	400							
